{"source": "ChEMBL document CHEMBL1201862", "about": "“PubChem BioAssay data set” (2004)", "experiment_in_all_cases": "NCI tumour cell line growth inhibition, 48 h", "key": {"[1]": {"test_system": "SK-OV-3"}, "[2]": {"test_system": "M19-MEL"}, "[3]": {"test_system": "NCI-H460"}, "[4]": {"test_system": "DMS-273"}, "[5]": {"test_system": "TK-10"}, "[6]": {"test_system": "HL-60"}, "[7]": {"test_system": "HOP-92"}, "[8]": {"test_system": "HOP-62"}, "[9]": {"test_system": "OVCAR-5"}, "[10]": {"test_system": "NCI-H522"}, "[11]": {"test_system": "IGROV-1"}, "[12]": {"test_system": "HT-29"}, "[13]": {"test_system": "SF-295"}, "[14]": {"test_system": "KM-20L2"}, "[15]": {"test_system": "OVCAR-8"}, "[16]": {"test_system": "U-251"}, "[17]": {"test_system": "SNB-78"}, "[18]": {"test_system": "M14"}, "[19]": {"test_system": "A498"}, "[20]": {"test_system": "ACHN"}, "[21]": {"test_system": "NCI-H23"}, "[22]": {"test_system": "RXF 631"}, "[23]": {"test_system": "RXF 393"}, "[24]": {"test_system": "A549"}, "[25]": {"test_system": "MOLT-4"}, "[26]": {"test_system": "HCT-116"}, "[27]": {"test_system": "UACC-257"}, "[28]": {"test_system": "CCRF-CEM"}, "[29]": {"test_system": "KM12"}, "[30]": {"test_system": "NCI-H226"}, "[31]": {"test_system": "EKVX"}, "[32]": {"test_system": "DMS-114"}, "[33]": {"test_system": "SK-MEL-28"}, "[34]": {"test_system": "UACC-62"}, "[35]": {"test_system": "SR"}, "[36]": {"test_system": "SF-268"}, "[37]": {"test_system": "SN12C"}, "[38]": {"test_system": "Malme-3M"}, "[39]": {"test_system": "SK-MEL-5"}, "[40]": {"test_system": "K562"}, "[41]": {"test_system": "HCC 2998"}, "[42]": {"test_system": "LOX IMVI"}, "[43]": {"test_system": "COLO 205"}, "[44]": {"test_system": "UO-31"}, "[45]": {"test_system": "SK-MEL-2"}, "[46]": {"test_system": "HOP-18"}, "[47]": {"test_system": "RPMI-8226"}, "[48]": {"test_system": "XF498"}, "[49]": {"test_system": "SNB-75"}, "[50]": {"test_system": "786-0"}, "[51]": {"test_system": "HCT-15"}, "[52]": {"test_system": "DLD-1"}, "[53]": {"test_system": "OVCAR-4"}, "[54]": {"test_system": "SNB-19"}, "[55]": {"test_system": "OVCAR-3"}, "[56]": {"test_system": "SF-539"}, "[57]": {"test_system": "CAKI-1"}, "[58]": {"test_system": "LXFL 529"}, "[59]": {"test_system": "SW-620"}}, "note": "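48-hour exposure; five concentrations; linearly interpolated endpoints. GI50 = concentration required for 50% inhibition of growth.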 The source made the active and inactive calls. No stated cut-off is given here; in the data, active = GI50 up to about 1.1 µM and inactive = higher."}
{"smiles": "NCC(=O)NC(CCCC(NC(=O)CN)P(=O)(O)O)P(=O)(O)O", "note": "(configuration not stated)", "values": [{"measurement": "GI50", "setting": "[1]", "value": "> 100 µM (inactive)"}, {"measurement": "GI50", "setting": "[2]", "value": "> 100 µM (inactive)"}, {"measurement": "GI50", "setting": "[3]", "value": "> 100 µM (inactive)"}, {"measurement": "GI50", "setting": "[4]", "value": "> 100 µM (inactive)"}, {"measurement": "GI50", "setting": "[5]", "value": "> 100 µM (inactive)"}, {"measurement": "GI50", "setting": "[6]", "value": "> 100 µM (inactive)"}, {"measurement": "GI50", "setting": "[7]", "value": "> 100 µM (inactive)"}, {"measurement": "GI50", "setting": "[8]", "value": "> 100 µM (inactive)"}, {"measurement": "GI50", "setting": "[9]", "value": "> 100 µM (inactive)"}, {"measurement": "GI50", "setting": "[10]", "value": "> 100 µM (inactive)"}, {"measurement": "GI50", "setting": "[11]", "value": "> 100 µM (inactive)"}, {"measurement": "GI50", "setting": "[12]", "value": "> 100 µM (inactive)"}, {"measurement": "GI50", "setting": "[13]", "value": "> 100 µM (inactive)"}, {"measurement": "GI50", "setting": "[14]", "value": "> 100 µM (inactive)"}, {"measurement": "GI50", "setting": "[15]", "value": "> 100 µM (inactive)"}, {"measurement": "GI50", "setting": "[16]", "value": "> 100 µM (inactive)"}, {"measurement": "GI50", "setting": "[17]", "value": "> 100 µM (inactive)"}, {"measurement": "GI50", "setting": "[18]", "value": "> 100 µM (inactive)"}, {"measurement": "GI50", "setting": "[19]", "value": "> 100 µM (inactive)"}, {"measurement": "GI50", "setting": "[20]", "value": "> 100 µM (inactive)"}, {"measurement": "GI50", "setting": "[21]", "value": "> 100 µM (inactive)"}, {"measurement": "GI50", "setting": "[22]", "value": "> 100 µM (inactive)"}, {"measurement": "GI50", "setting": "[23]", "value": "> 100 µM (inactive)"}, {"measurement": "GI50", "setting": "[24]", "value": "> 100 µM (inactive)"}, {"measurement": "GI50", "setting": "[25]", "value": "> 100 µM (inactive)"}, {"measurement": "GI50", "setting": "[26]", "value": "> 100 µM (inactive)"}, {"measurement": "GI50", "setting": "[27]", "value": "> 100 µM (inactive)"}, {"measurement": "GI50", "setting": "[28]", "value": "> 100 µM (inactive)"}, {"measurement": "GI50", "setting": "[29]", "value": "> 100 µM (inactive)"}, {"measurement": "GI50", "setting": "[30]", "value": "26 µM (inactive)"}, {"measurement": "GI50", "setting": "[31]", "value": "> 100 µM (inactive)"}, {"measurement": "GI50", "setting": "[32]", "value": "> 100 µM (inactive)"}, {"measurement": "GI50", "setting": "[33]", "value": "> 100 µM (inactive)"}, {"measurement": "GI50", "setting": "[34]", "value": "> 100 µM (inactive)"}, {"measurement": "GI50", "setting": "[35]", "value": "> 100 µM (inactive)"}]}
{"smiles": "CCC1c2cc3n(c(=O)c2COC1O)Cc1c-3nc2ccccc2c1Cl", "note": "(configuration not stated)", "values": [{"measurement": "GI50", "setting": "[1]", "value": "> 75 µM (inactive)"}, {"measurement": "GI50", "setting": "[36]", "value": "14.4 µM (inactive)"}, {"measurement": "GI50", "setting": "[2]", "value": "69.3 µM (inactive)"}, {"measurement": "GI50", "setting": "[37]", "value": "10.1 µM (inactive)"}, {"measurement": "GI50", "setting": "[38]", "value": "> 100 µM (inactive)"}, {"measurement": "GI50", "setting": "[39]", "value": "29.4 µM (inactive)"}, {"measurement": "GI50", "setting": "[40]", "value": "32.2 µM (inactive)"}, {"measurement": "GI50", "setting": "[3]", "value": "3.89 µM (inactive)"}, {"measurement": "GI50", "setting": "[4]", "value": "4.4 µM (inactive)"}, {"measurement": "GI50", "setting": "[41]", "value": "44.7 µM (inactive)"}, {"measurement": "GI50", "setting": "[5]", "value": "> 100 µM (inactive)"}, {"measurement": "GI50", "setting": "[42]", "value": "18.6 µM (inactive)"}, {"measurement": "GI50", "setting": "[6]", "value": "26.9 µM (inactive)"}, {"measurement": "GI50", "setting": "[7]", "value": "> 100 µM (inactive)"}, {"measurement": "GI50", "setting": "[43]", "value": "> 89.5 µM (inactive)"}, {"measurement": "GI50", "setting": "[44]", "value": "19.4 µM (inactive)"}, {"measurement": "GI50", "setting": "[8]", "value": "14.8 µM (inactive)"}, {"measurement": "GI50", "setting": "[9]", "value": "> 100 µM (inactive)"}, {"measurement": "GI50", "setting": "[10]", "value": "5.05 µM (inactive)"}, {"measurement": "GI50", "setting": "[11]", "value": "> 75.3 µM (inactive)"}, {"measurement": "GI50", "setting": "[12]", "value": "70.1 µM (inactive)"}, {"measurement": "GI50", "setting": "[45]", "value": "> 100 µM (inactive)"}, {"measurement": "GI50", "setting": "[46]", "value": "> 75.7 µM (inactive)"}, {"measurement": "GI50", "setting": "[47]", "value": "> 29.3 µM (inactive)"}, {"measurement": "GI50", "setting": "[48]", "value": "> 100 µM (inactive)"}, {"measurement": "GI50", "setting": "[13]", "value": "20.9 µM (inactive)"}, {"measurement": "GI50", "setting": "[14]", "value": "> 69.7 µM (inactive)"}, {"measurement": "GI50", "setting": "[15]", "value": "55.3 µM (inactive)"}, {"measurement": "GI50", "setting": "[16]", "value": "9.86 µM (inactive)"}, {"measurement": "GI50", "setting": "[49]", "value": "20.5 µM (inactive)"}, {"measurement": "GI50", "setting": "[17]", "value": "> 100 µM (inactive)"}, {"measurement": "GI50", "setting": "[18]", "value": "25 µM (inactive)"}, {"measurement": "GI50", "setting": "[19]", "value": "52.6 µM (inactive)"}, {"measurement": "GI50", "setting": "[20]", "value": "19.3 µM (inactive)"}, {"measurement": "GI50", "setting": "[21]", "value": "28.7 µM (inactive)"}, {"measurement": "GI50", "setting": "[50]", "value": "25.7 µM (inactive)"}, {"measurement": "GI50", "setting": "[51]", "value": "> 94.2", "unit": "µM"}, {"measurement": "GI50", "setting": "[23]", "value": "73.8 µM (inactive)"}, {"measurement": "GI50", "setting": "[24]", "value": "28.5 µM (inactive)"}, {"measurement": "GI50", "setting": "[25]", "value": "3.28 µM (inactive)"}, {"measurement": "GI50", "setting": "[26]", "value": "20.1 µM (inactive)"}, {"measurement": "GI50", "setting": "[27]", "value": "> 100 µM (inactive)"}, {"measurement": "GI50", "setting": "[28]", "value": "3.34 µM (inactive)"}, {"measurement": "GI50", "setting": "[52]", "value": "99.1 µM (inactive)"}, {"measurement": "GI50", "setting": "[29]", "value": "> 100 µM (inactive)"}, {"measurement": "GI50", "setting": "[53]", "value": "> 65.5 µM (inactive)"}, {"measurement": "GI50", "setting": "[54]", "value": "30.3 µM (inactive)"}, {"measurement": "GI50", "setting": "[30]", "value": "39.6 µM (inactive)"}, {"measurement": "GI50", "setting": "[55]", "value": "> 100 µM (inactive)"}, {"measurement": "GI50", "setting": "[56]", "value": "22.2 µM (inactive)"}, {"measurement": "GI50", "setting": "[31]", "value": "66.1 µM (inactive)"}, {"measurement": "GI50", "setting": "[32]", "value": "49.4 µM (inactive)"}, {"measurement": "GI50", "setting": "[33]", "value": "> 100 µM (inactive)"}, {"measurement": "GI50", "setting": "[34]", "value": "6.95 µM (inactive)"}, {"measurement": "GI50", "setting": "[57]", "value": "23 µM (inactive)"}, {"measurement": "GI50", "setting": "[58]", "value": "> 80.7 µM (inactive)"}, {"measurement": "GI50", "setting": "[59]", "value": "> 100 µM (inactive)"}]}
